These molecules were tested against Acetolactate synthase, chloroplastic (Arabidopsis thaliana, UniProt P17597, W574L). Conditions: not given.
Work on `Cc1ccc(SSc2nc[nH]n2)cc1` yielded a Ki of 25.7 µM. With `Cc1nc(SSc2ccccc2[N+](=O)[O-])n[nH]1` the Ki was 27.1 µM. Work on `COC(=O)c1ccccc1S(=O)(=O)NC(=O)Nc1nccc(C)n1` [MONOSULFURON ESTER] yielded a Ki of 8.53 µM. In the case of `CC(C)C1(C)N=C(c2nc3ccccc3cc2C(=O)O)NC1=O` (stereo not drawn) [IMAZAQUIN], the Ki is reported as 470 µM.

Each molecule was assayed against T1, Acetolactate synthase, chloroplastic (Arabidopsis thaliana, UniProt P17597). Conditions: not given.
T1 sequence (P17597 whole entry): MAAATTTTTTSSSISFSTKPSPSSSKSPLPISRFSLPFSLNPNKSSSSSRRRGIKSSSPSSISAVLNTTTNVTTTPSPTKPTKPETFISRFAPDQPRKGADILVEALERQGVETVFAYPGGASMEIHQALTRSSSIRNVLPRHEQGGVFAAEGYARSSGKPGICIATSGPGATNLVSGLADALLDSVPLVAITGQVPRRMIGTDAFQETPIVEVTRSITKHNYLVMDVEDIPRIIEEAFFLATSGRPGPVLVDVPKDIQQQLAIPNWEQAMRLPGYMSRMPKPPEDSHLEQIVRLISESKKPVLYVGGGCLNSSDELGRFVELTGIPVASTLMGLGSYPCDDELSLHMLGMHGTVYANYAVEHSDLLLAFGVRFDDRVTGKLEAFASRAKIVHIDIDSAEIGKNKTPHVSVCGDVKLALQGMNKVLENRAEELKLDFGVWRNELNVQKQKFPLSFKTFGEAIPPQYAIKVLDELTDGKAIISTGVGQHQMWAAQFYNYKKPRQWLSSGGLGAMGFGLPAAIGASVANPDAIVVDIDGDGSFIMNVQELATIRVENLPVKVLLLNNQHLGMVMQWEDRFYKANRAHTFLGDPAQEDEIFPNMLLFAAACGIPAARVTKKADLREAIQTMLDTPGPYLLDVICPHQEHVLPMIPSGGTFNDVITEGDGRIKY
`Cc1ccc(SSc2nc[nH]n2)cc1` gave a Ki of 4.69 µM. Molecule `Cc1nc(SSc2ccccc2[N+](=O)[O-])n[nH]1` has a Ki of 5.57 µM. In the case of `COC(=O)c1ccccc1S(=O)(=O)NC(=O)Nc1nccc(C)n1` [MONOSULFURON ESTER], the Ki is reported as 0.26 µM.

What follows are molecules tested on Brassica rapa subsp. oleifera (assay: Herbicidal activity against Brassica rapa subsp. oleifera assessed as Brassica rapa subsp. oleifera root growth inhibition at 100 mg/L). Conditions: read-out: GI.
Assay type: functional
In the case of `CCOC(=O)c1ccccc1SSc1n[nH]c(-c2ccccc2)n1`, the inhibition of growth at 100 µg/mL is reported as 34.3%. Work on `Fc1ccccc1SSc1nc[nH]n1` yielded an inhibition of growth at 100 µg/mL of 47.2%. Work on `c1ccc(SSc2n[nH]c(-c3cccnc3)n2)cc1` yielded an inhibition of growth at 100 µg/mL of 66.2%. Molecule `COc1ccc(SSc2n[nH]c(-c3ccncc3)n2)cc1` has an inhibition of growth at 100 µg/mL of 0%. `COC(=O)c1ccccc1SSc1n[nH]c(-c2ccc(C)cc2)n1` was tested, and the inhibition of growth at 100 µg/mL was 44.9%. Work on `O=[N+]([O-])c1ccccc1SSc1n[nH]c(-c2cccnc2)n1` yielded an inhibition of growth at 100 µg/mL of 27.4%. For `Cc1ccc(SSc2n[nH]c(-c3ccccc3)n2)cc1`, the inhibition of growth at 100 µg/mL was 87.5%. Molecule `COc1ccc(SSc2n[nH]c(-c3ccccc3)n2)cc1` has an inhibition of growth at 100 µg/mL of 29.4%. For `COc1ccc(SSc2n[nH]c(-c3ccc(C)cc3)n2)cc1`, the inhibition of growth at 100 µg/mL was 11%. Work on `Clc1ccc(SSc2nc[nH]n2)cc1` yielded an inhibition of growth at 100 µg/mL of 50.2%. `Cc1ccc(SSc2nc[nH]n2)cc1` was tested, and the inhibition of growth at 100 µg/mL was 67.5%. Molecule `c1ccc(SSc2n[nH]c(-c3ccncc3)n2)cc1` has an inhibition of growth at 100 µg/mL of 70.2%. `COc1ccc(SSc2n[nH]c(C)n2)cc1` was tested, and the inhibition of growth at 100 µg/mL was 28.3%. Molecule `Cc1ccccc1SSc1nc[nH]n1` has an inhibition of growth at 100 µg/mL of 43.6%. `Clc1ccc(SSc2n[nH]c(-c3cccnc3)n2)cc1` showed an inhibition of growth at 100 µg/mL of 0%. For `Cc1ccc(SSc2n[nH]c(-c3ccncc3)n2)cc1`, the inhibition of growth at 100 µg/mL was 6.9%. `COc1ccc(SSc2n[nH]c(-c3cccnc3)n2)cc1` showed an inhibition of growth at 100 µg/mL of 14.3%. With `O=[N+]([O-])c1ccccc1SSc1nc[nH]n1` the inhibition of growth at 100 µg/mL was 69.8%. Molecule `COC(=O)c1ccccc1SSc1n[nH]c(-c2ccncc2)n1` has an inhibition of growth at 100 µg/mL of 30.5%. In the case of `CCOC(=O)c1ccccc1SSc1n[nH]c(-c2cccnc2)n1`, the inhibition of growth at 100 µg/mL is reported as 0%. `COC(=O)c1ccccc1SSc1nc[nH]n1` showed an inhibition of growth at 100 µg/mL of 54.8%. With `COC(=O)c1ccccc1SSc1n[nH]c(C)n1` the inhibition of growth at 100 µg/mL was 10.6%. With `c1ccc(SSc2nc[nH]n2)cc1` the inhibition of growth at 100 µg/mL was 86.6%. `Clc1ccc(SSc2n[nH]c(-c3ccccc3)n2)cc1` was tested, and the inhibition of growth at 100 µg/mL was 37.5%. `Cc1ccc(SSc2n[nH]c(-c3ccc(C)cc3)n2)cc1` gave an inhibition of growth at 100 µg/mL of 0%. `Brc1ccc(SSc2nc[nH]n2)cc1` gave an inhibition of growth at 100 µg/mL of 27.4%. Work on `Cc1ccc(-c2nc(SSc3ccc(Cl)cc3)n[nH]2)cc1` yielded an inhibition of growth at 100 µg/mL of 24.1%. For `Cc1nc(SSc2ccccc2[N+](=O)[O-])n[nH]1`, the inhibition of growth at 100 µg/mL was 59.6%. In the case of `COC(=O)c1ccccc1S(=O)(=O)NC(=O)Nc1nccc(C)n1` [MONOSULFURON ESTER], the inhibition of growth at 100 µg/mL is reported as 88.5%. `Cc1ccc(SSc2n[nH]c(-c3cccnc3)n2)cc1` was tested, and the inhibition of growth at 100 µg/mL was 0%. Work on `Cc1ccc(-c2nc(SSc3ccccc3)n[nH]2)cc1` yielded an inhibition of growth at 100 µg/mL of 54.1%. For `CCOC(=O)c1ccccc1SSc1n[nH]c(-c2ccncc2)n1`, the inhibition of growth at 100 µg/mL was 0%. With `Cc1nc(SSc2ccccc2C)n[nH]1` the inhibition of growth at 100 µg/mL was 36.8%. With `Cc1nc(SSc2ccc(Br)cc2)n[nH]1` the inhibition of growth at 100 µg/mL was 17.6%. Molecule `c1ccc2cc(SSc3nc[nH]n3)ccc2c1` has an inhibition of growth at 100 µg/mL of 16.3%. `O=[N+]([O-])c1ccccc1SSc1n[nH]c(-c2ccccc2)n1` showed an inhibition of growth at 100 µg/mL of 0%. `COc1ccc(SSc2nc[nH]n2)cc1` was tested, and the inhibition of growth at 100 µg/mL was 44.6%. `CCOC(=O)c1ccccc1SSc1nc[nH]n1` gave an inhibition of growth at 100 µg/mL of 21.1%. With `c1ccc(SSc2n[nH]c(-c3ccccc3)n2)cc1` the inhibition of growth at 100 µg/mL was 81.7%. Work on `Clc1ccc(SSc2n[nH]c(-c3ccncc3)n2)cc1` yielded an inhibition of growth at 100 µg/mL of 0%. Molecule `O=[N+]([O-])c1ccccc1SSc1n[nH]c(-c2ccncc2)n1` has an inhibition of growth at 100 µg/mL of 0%. For `Cc1nc(SSc2ccccc2)n[nH]1`, the inhibition of growth at 100 µg/mL was 69.4%. `Cc1nc(SSc2ccc(Cl)cc2)n[nH]1` was tested, and the inhibition of growth at 100 µg/mL was 24.1%. `Cc1ccc(-c2nc(SSc3ccccc3[N+](=O)[O-])n[nH]2)cc1` showed an inhibition of growth at 100 µg/mL of 0%. In the case of `Cc1nc(SSc2ccc3ccccc3c2)n[nH]1`, the inhibition of growth at 100 µg/mL is reported as 0%. With `Cc1nc(SSc2ccccc2F)n[nH]1` the inhibition of growth at 100 µg/mL was 13%. `Cc1ccc(SSc2n[nH]c(C)n2)cc1` showed an inhibition of growth at 100 µg/mL of 62.5%. `CCOC(=O)c1ccccc1SSc1n[nH]c(-c2ccc(C)cc2)n1` was tested, and the inhibition of growth at 100 µg/mL was 0%. Molecule `CCOC(=O)c1ccccc1SSc1n[nH]c(C)n1` has an inhibition of growth at 100 µg/mL of 26.6%. `COC(=O)c1ccccc1SSc1n[nH]c(-c2ccccc2)n1` gave an inhibition of growth at 100 µg/mL of 52.8%. `COC(=O)c1ccccc1SSc1n[nH]c(-c2cccnc2)n1` showed an inhibition of growth at 100 µg/mL of 0%.
